# Test results as given in patent publication US7314709B2, “Compositions and methods for detecting and quantifying COX-2 activity by lipoamino acid metabolism” (Vanderbilt University, priority 2002, dated 2008).
# Numbering of substitutions follows the chain as printed.
# Legend:
# Type in all cases: biochemical, murine
# mCOX-2 Y385F = target: T1, mCOX-2 Y385F (Mus musculus, UniProt Q05769, Y371F); assay: O2 uptake with mCOX-2 site-directed mutant Y385F
# T1 construct: made in house; host or cells: Sf-9 insect cells
# T1 sequence (Q05769 18-604 Y371F): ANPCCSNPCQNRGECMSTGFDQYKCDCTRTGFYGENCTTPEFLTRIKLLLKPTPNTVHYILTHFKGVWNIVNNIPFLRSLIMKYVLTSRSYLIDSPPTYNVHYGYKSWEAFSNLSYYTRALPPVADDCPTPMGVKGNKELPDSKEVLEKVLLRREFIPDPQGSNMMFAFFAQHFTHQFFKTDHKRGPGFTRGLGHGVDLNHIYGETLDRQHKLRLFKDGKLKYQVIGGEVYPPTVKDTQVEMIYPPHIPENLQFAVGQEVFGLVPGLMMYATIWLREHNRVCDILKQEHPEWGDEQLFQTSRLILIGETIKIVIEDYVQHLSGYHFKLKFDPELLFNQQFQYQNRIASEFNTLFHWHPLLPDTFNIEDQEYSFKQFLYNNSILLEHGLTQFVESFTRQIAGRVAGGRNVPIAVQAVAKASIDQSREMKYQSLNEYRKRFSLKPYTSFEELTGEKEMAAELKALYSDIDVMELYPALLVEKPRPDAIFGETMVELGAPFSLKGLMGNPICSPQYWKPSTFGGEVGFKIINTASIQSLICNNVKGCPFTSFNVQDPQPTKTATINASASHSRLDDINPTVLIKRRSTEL
# Procedure: (§1) Enzymology: COX-1 was purified from ram seminal vesicles as previously described. Site-directed mutagenesis of COX-2 was performed as described previously. Recombinant COX-2 enzymes were expressed in Sf-9 insect cells and purified by ion-exchange chromatography and gel filtration as previously described. Apo-enzymes were reconstituted with hematin prior to activity assays.
# (§2) COX activity was quantified as previously described. Initial reaction velocity data were obtained from the linear portion of the oxygen uptake curves. Oxygraph data were analyzed by nonlinear regression with Enzyme Kinetics 1.5 software (Trinity Software, Campton, N.H.).
# AA binds in the COX active site with the […] near Gly-533 [20,27].
# mCOX-2 E524L = target: T2, mCOX-2 E524L (Mus musculus, UniProt Q05769, E510L); assay: Initial O2 uptake rate with constriction site mutant E524L; settings: 200 nM enzyme; AA 100 μM, NAGly 200 μM
# T2 construct: made in house; host or cells: Sf-9 insect cells
# T2 sequence (Q05769 18-604 E510L): T1 sequence (Q05769 18-604 Y371F) with F354Y, E493L
# Procedure: as §1, §2
# At the bottom of the substrate (and inhibitor) binding site, there is a hydrogen bonding network comprised of residues Arg-120, Tyr-355, and Glu524, that form a constriction which is present in both COX isoforms. These residues contribute to the binding of the carboxylate in both AA and NSAIDs, and the glycerol moiety of 2-AG [12,23-27].
# mCOX-2 V523I = target: T3, mCOX-2 V523I (Mus musculus, UniProt Q05769, V509I); assay: Initial O2 uptake rate with side pocket mutant V523I; settings: 200 nM enzyme; AA 100 μM
# T3 construct: made in house; host or cells: Sf-9 insect cells
# T3 sequence (Q05769 18-604 V509I): T1 sequence (Q05769 18-604 Y371F) with F354Y, V492I
# Procedure: as §1, §2
# (§3) Previous studies have identified residues in the side pocket of COX-2, especially Arg-513, as critical determinants of 2-AG oxygenation by COX-2 [13]. […] (FIG. 5).
# [1] = target: T4, mCOX-2 V4341/R513H/V5231 (VRV) (Mus musculus, UniProt Q05769, R499H/V420I/V509I); assay: Initial O2 uptake rate with side pocket triple mutant (VRV); settings: 200 nM enzyme; AA 100 μM, NAGly 200 μM
# T4 construct: made in house; host or cells: Sf-9 insect cells
# T4 sequence (Q05769 18-604 V420I/R499H/V509I): T1 sequence (Q05769 18-604 Y371F) with F354Y, V403I, R482H, V492I
# Procedure: as §1, §2, §3
smiles,measurement,setting,value
"CCCCC/C=C\C/C=C\C/C=C\C/C=C\CCCC(=O)O [AA, arachidonic acid]",substrate oxidation by Y385F,mCOX-2 Y385F,fails to oxidize
same,reduction in initial rate of oxygenation compared with wild-type,mCOX-2 E524L,< 3 fold
same,effect of mutation on ability to metabolize AA,mCOX-2 V523I,did not greatly affect
same,effect of mutation on oxygenation,[1],did not greatly affect
